Experimental data from patent US20250041284A1, “TREATMENT OF NEUROLOGICAL DISORDERS” (Praxis Precision Medicines, Inc., priority 2022, published 2025).
Several values for one entry are separate records, joined by “and”; a condition that tells them apart may be missing. Equal values may be shown once.

Experiments:
[1] = system: scPTZ-induced seizures in wildtype CD-1 mice; assay: Subcutaneous pentylenetetrazole (scPTZ) induced seizure; assay type: in vivo, mouse; conditions: 1-10 mg/kg orally
Procedure: Male CD-1 mice (Charles River Laboratories, St. Constant, Quebec, Canada) were used for the study. Body weights at the time the experiment was carried out were between 27 and 39 grams. The mice were group-housed in polycarbonate cages according to standard operating procedures. Animals were maintained on a 12 hour light/12 hour dark cycle, with all experimental activities occurring during the light phase. Food and water were available ad libitum. Mice acclimated to the test facility for at least 72 hours prior to testing.
Treatment was conducted using Compound 1 and 35% 2-hydroxypropyl-β-cyclodextrin (35% HPBCD, used as a negative control). Compound 1 stock solution was prepared fresh each experiment day in 35% HPBCD. […]
Immediately prior to the administration of PTZ, a brief neurological assessment was performed. Each animal was visually assessed and received a score from 0 to 3 according to the following scoring system: neurological score of 0 corresponds to a normal status; neurological score of 1 corresponds to a modest decrease in spontaneous activity; neurological score of 2 corresponds to a marked decrease in spontaneous activity; and neurological score of 3 corresponds to loss of righting reflex.
PTZ (85 mg/kg, 10 ml/kg) was administered as a subcutaneous (s.c.) injection. […] The latency to generalized clonic seizure was recorded. Seizures were also scored using a seizure scale. […]

[2] = system: locomotor activity of male CD-1 mice; assay: Spontaneous locomotor activity (sLMA) (Example 8); assay type: in vivo, mouse
Procedure: Male CD-1 mice (Vital River, Beijing, China) approximately 6 weeks old were used for the study. Body weights were between 25 g and 35 g at the time of experiment.
Treatment was conducted using Compound 1 and 35% 2-hydroxypropyl-β-cyclodextrin (35% HPBCD, used as a negative control). Compound 1 stock solution was prepared fresh each experiment day in 35% HPBCD and protected from light. The stock solution was diluted with vehicle for lower doses.
The spontaneous locomotor activity (sLMA) test for each study was carried out over three days, with mice from each treatment group tested each day. The treatment groups included mice dosed with vehicle (35% HPBCD) and with Compound 1 at the dose of 3 mg/kg, 5.6 mg/kg, 10 mg/kg and 20 mg/kg. Mice were randomly assigned into one of the treatment groups.
A single dose of Compound 1 (3 mg/kg, 5.6 mg/kg, 10 mg/kg and 20 mg/kg) or vehicle (35% HPBCD) was administered to mice via oral gavage 30 minutes prior to testing. Immediately prior to conducting the sLMA test, a brief neurological assessment was performed. Each animal was visually assessed for sedation and ataxia.
Activity was recorded by overhead cameras and was analyzed offline. Video tracking analysis software was used to determine total distance travelled in millimeters. Distance travelled was also calculated in 5-minute bins.
All statistical analyses were conducted using GraphPad Prism 9.3. Means were combined and standard error was calculated using the Satterthwaite Approximation to combined standard deviations. […] TD50 and TC50 values were calculated from these fit curves.

human NaV1.6 [3] = target: T1, human NaV1.6 (Homo sapiens, UniProt Q9UQD0); assay: Peak INa tonic block (TB), automated patch clamp in HEK cells; assay type: cell-based
T1 construct: HEK-293 cell lines stably expressing human NaV1.6 (NP_055006) were used; expressed in transfected cells
T1 sequence (Q9UQD0 whole entry): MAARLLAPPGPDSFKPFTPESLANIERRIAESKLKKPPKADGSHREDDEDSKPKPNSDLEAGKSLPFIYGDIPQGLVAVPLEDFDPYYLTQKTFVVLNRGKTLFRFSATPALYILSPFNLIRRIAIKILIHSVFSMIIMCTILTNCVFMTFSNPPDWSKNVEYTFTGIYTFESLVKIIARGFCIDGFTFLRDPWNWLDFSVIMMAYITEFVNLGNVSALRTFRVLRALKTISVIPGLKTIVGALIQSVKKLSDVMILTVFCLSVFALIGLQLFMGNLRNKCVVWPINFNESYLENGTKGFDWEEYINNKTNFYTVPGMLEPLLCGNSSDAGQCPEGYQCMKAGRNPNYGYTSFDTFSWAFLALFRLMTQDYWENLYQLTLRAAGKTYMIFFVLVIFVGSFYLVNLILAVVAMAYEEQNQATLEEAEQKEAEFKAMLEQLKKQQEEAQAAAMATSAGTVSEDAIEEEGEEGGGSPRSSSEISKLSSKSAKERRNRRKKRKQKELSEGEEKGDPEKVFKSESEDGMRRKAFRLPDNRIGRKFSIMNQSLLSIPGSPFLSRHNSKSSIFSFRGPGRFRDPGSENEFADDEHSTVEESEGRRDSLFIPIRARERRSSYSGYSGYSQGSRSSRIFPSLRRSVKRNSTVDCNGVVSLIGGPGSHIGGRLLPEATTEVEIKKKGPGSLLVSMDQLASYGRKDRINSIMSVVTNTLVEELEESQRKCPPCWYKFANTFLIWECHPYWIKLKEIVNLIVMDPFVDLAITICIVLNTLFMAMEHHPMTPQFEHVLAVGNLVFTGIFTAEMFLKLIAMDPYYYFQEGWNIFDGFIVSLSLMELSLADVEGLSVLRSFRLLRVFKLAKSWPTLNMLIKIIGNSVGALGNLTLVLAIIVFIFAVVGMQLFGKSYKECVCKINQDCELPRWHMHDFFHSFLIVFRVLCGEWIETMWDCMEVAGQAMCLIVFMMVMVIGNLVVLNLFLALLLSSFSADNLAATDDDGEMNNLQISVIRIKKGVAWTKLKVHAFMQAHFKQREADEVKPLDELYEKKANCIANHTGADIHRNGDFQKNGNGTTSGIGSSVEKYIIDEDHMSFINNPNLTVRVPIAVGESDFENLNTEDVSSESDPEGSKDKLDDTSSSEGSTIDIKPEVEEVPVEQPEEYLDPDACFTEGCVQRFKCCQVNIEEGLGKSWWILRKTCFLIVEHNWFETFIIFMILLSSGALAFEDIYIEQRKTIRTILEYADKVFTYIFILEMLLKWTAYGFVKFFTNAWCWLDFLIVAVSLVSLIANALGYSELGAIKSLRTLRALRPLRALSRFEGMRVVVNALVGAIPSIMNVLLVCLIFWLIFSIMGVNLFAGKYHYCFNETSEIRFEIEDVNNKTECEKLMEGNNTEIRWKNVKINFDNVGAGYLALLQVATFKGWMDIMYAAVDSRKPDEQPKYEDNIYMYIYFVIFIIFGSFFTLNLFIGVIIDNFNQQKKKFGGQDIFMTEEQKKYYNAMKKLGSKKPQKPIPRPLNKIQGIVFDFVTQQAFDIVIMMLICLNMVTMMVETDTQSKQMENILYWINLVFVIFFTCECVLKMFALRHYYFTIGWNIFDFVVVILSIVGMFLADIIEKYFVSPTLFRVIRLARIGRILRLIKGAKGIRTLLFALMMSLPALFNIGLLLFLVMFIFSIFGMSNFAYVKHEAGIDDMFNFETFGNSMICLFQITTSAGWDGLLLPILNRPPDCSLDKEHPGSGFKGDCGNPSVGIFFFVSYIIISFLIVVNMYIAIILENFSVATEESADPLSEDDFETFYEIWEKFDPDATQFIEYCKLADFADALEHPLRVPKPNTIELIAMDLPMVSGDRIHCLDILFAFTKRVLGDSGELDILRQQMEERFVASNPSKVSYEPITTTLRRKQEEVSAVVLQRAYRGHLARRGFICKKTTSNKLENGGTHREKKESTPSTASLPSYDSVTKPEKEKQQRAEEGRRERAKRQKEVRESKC

hNaV1.6 [4] = target: T2, hNaV1.6 (Homo sapiens, UniProt Q9UQD0); assay: Peak INa voltage-dependent block (VDB), automated patch clamp in HEK cells; assay type: cell-based
T2 construct: expressed in transfected cells; host or cells: HEK cells
T2 sequence (Q9UQD0 whole entry): as above

hNaV1.6 [5] = target: T2, hNaV1.6; assay: Apparent binding (KON) and unbinding (KOFF) rates inferred from INa inhibition kinetics; assay type: cell-based
human NaV1.6 [6] = target: T1, human NaV1.6; assay: Persistent (late) INa inhibition, ATX-II activated, automated patch clamp in HEK cells; assay type: cell-based
[7] = recovery from inhibition of hNaV1.6 INa

With `CCOC(F)(F)c1nnc2ccc(-c3cnc(OCC(F)(F)F)c(F)c3)cn12` [Compound 1] as the molecule, how does the “neurological scores before PTZ” value [1] read?
Its value is “Neurological scores for all but one mouse treated with Compound 1 were normal”.

And the “protection from PTZ-induced generalized clonus” value ([1]; PTZ 85 mg/kg s.c.)?
The value was “mice were protected from generalized clonus”.

What about the sedation or ataxia ([2]; 3 mg/kg and 5.6 mg/kg p.o.) of the same molecule?
Its sedation or ataxia is “No sedation or ataxia was observed”.

What about the “mice with sedation and/or ataxia” value ([2]; 10 mg/kg p.o.) of the same molecule?
Its value is “five”.

What about the “mice with sedation and/or ataxia” value ([2]; 20 mg/kg p.o.) of the same molecule?
The value was “eight”.

And the “sLMA brain TC50” value ([2]; brain concentration)?
The value was 1914 ng/g.

What about the “sLMA plasma TC50” value ([2]; plasma concentration) of the same molecule?
Its value is 1.256 µg/mL.

And the “Ratio to Pers. INa (Peak INa TB)” value (human NaV1.6 [3]; peak INa TB IC50 / persistent INa IC50)?
Its value is 68.

What about the “Peak INa TB Hill slope” value (human NaV1.6 [3]; tonic block) of the same molecule?
Its value is “(1.0)”.

And the IC50 (human NaV1.6 [3]; tonic block, Vm -120 mV, 0.2 Hz)?
The IC50 was 8710 nM.

What about the “Ratio to Pers. INa (Peak INa VDB)” value (hNaV1.6 [4]; VDB IC50 / persistent INa IC50) of the same molecule?
Its value is 0.56.

And the “Peak INa VDB Hill slope” value (hNaV1.6 [4]; voltage-dependent block)?
Its value is “(1.0)”.

And the IC50 (hNaV1.6 [4]; voltage-dependent block, Vm inactivation V1/2)?
Its IC50 is 72 nM.

What about the “apparent KON” value (hNaV1.6 [5]; development of inhibition of hNaV1.6 INa) of the same molecule?
The value was 4.2e+06 M⁻¹ s⁻¹ and 4.168e+06 M⁻¹ s⁻¹.

What about the kon (hNaV1.6 [5]; development of inhibition of hNaV1.6 INa, read-out: apparent KON) of the same molecule?
The kon was 4.2e+06 M⁻¹ s⁻¹.

And the KON versus carbamazepine (hNaV1.6 [5]; fold faster)?
The KON versus carbamazepine was > 1,500 ×.

And the “KOFF slower than carbamazepine” value (hNaV1.6 [5]; fold slower unbinding)?
Its value is 33 ×.

What about the “apparent KOFF” value (hNaV1.6 [5]; [7]) of the same molecule?
The value was 1.7 s⁻¹ and 1.72 s⁻¹.

And the koff (hNaV1.6 [5]; [7])?
Its koff is 1.7 s⁻¹.

And the “Persistent INa potency relative to the other tested INa blocking agents” value (human NaV1.6 [6]; fold more potent)?
The value was “at least 550 ×”.

What about the “Persistent INa Hill slope” value (human NaV1.6 [6]; hNaV1.6 in HEK cells, ATX-II) of the same molecule?
The value was “(1.4)”.

And the IC50 (human NaV1.6 [6]; hNaV1.6 in HEK cells, ATX-II, Vm -120 mV, 200 ms)?
The IC50 was 128 nM.

What about the “preference for persistent INa relative to peak INa” value (human NaV1.6 [6]; in words, FIGS. 1A-1D) of the same molecule?
Its value is “demonstrated preference for persistent INa relative to peak INa for all assay conditions”.
